From PubChem BioAssay AID2060358 (Molecular Pharmacology Branch, DTP, NCI, 2025)
The source made the active and inactive calls. How the source made its calls: active means viability on the fitted dose curve at most 10% of control; inactive means the rest.

Test system: 254851-301-R-J1-PDC spheroids, viability % test/control
Experiment: Anticancer human tumor 254851-301-R-J1-PDC patient-derived colon carcinoma cell line growth inhibition [TAK]
Conditions: spheroids with HUVEC and MSC; for IC50: curve of first compound; for viability, T/C: stronger effect = lower value
From the text: Combinatorial screen of targeted agents with TAK-243 and ipatasertib in multi-cell type tumor spheroids
A high-throughput screen of multi-cell type tumor spheroids was designed to identify active combinations of targeted small molecules and TAK-243 or ipatasertib. Complex spheroids include a stromal component modeled by human endothelial cells (HUVEC) and fibroblasts modeled by human mesenchymal stem cells (MSCs). The concentration ranges selected for each drug and investigational agent were based upon clinically achievable concentrations if the clinical Cmax of the agent was known.
Compounds. The drugs and investigational agents: TAK-243 (785004), ipatasertib (767898), everolimus (733504), selumetinib (741078), bortezomib (756655), trametinib (758246), ixazomib (758254), vemurafenib (761431), dabrafenib (764134), sapanisertib (764658), alpelisib (765974), and copanlisib (816437), were obtained from the National Cancer Institute (NCI) Developmental Therapeutics Program Chemical Repository. The FDA-approved anticancer drug set is available from the NCI Developmental Therapeutics Program. […] The stock solutions were prepared in dimethyl sulfoxide (DMSO, Sigma-Aldrich, St. Louis, MO, cat. D2650) at 800-fold the tested concentration and stored at -70 degrees C prior to their use. All drugs and investigational agents were tested over a range starting from a high concentration at or near the clinical Cmax and decreasing in half-log increments. If the clinical Cmax for an agent had not been determined, the highest concentration tested was 10 microM.
NCI60 Cell Culture. NCI60 cell lines were obtained from the NCI Developmental Therapeutics Program Tumor Repository. For each lot of cells, the Repository performed Applied Biosystems AmpFLSTR Identifiler testing with PCR amplification to confirm consistency with the published Identifier STR profile for each cell line. Cells were kept in continuous culture for no more than 20 passages. The optimal seeding densities for each of the cell lines at each time point assessed were determined prior to performing the concentration response studies. Briefly, the NCI60 human tumor lines were grown as monolayers in RPMI 1640 medium supplemented with 10% FBS and 2 mmol/L L-glutamine.
An additional 2 lines were from the NCI60 cell line panel including melanomas, MALME-3M and SK-MEL-2. Pooled donor human umbilical vein endothelial cells (HUVEC, Lonza, cat. CC-2519) and human mesenchymal stem cells (hMSC, Lonza, cat. PT-2501) were purchased from Lonza (Walkersville, MD).
PDMR cell lines were grown in complete medium (DC medium): Dulbecco's modified Eagle's medium (DMEM)/F12 supplemented with 5% fetal bovine serum (FBS), 2 mM L-glutamine, 100 U/mL penicillin and 100 µg/ml streptomycin, 0.4 µg/ml hydrocortisone, 10 ng/ml epidermal growth factor (EGF) recombinant human protein, 24 µg/mL adenine, and 0.1 mg/mL primocin. During culture from frozen stock vials, PDMR cells were cultured in the same medium containing 10 µM Y-27632 (see Table 3). The PDCs were cultured in complete DMEM/F12 media without 10 microM Y-27632 dihydrochloride for at least two passages prior to the screen. The pooled donor HUVEC and hMSC were cultured in endothelial cell growth medium 2 (PromoCell, Heidelberg, Germany, cat. C-22011) and mesenchymal stem cell growth medium 2 (PromoCell, cat. C-28009), respectively. For all experiments, HUVEC and hMSC were used at passages </=5.
For the pre-screen, cell seeding densities were determined from a titration spanning the range from 5,000 to 313 cells per well. The mct-spheroids including 60% malignant cells, 25% HUVEC and 15% MSC dispensed as a mixture into U-bottom Ultra-Low Attachment 384-well plates (Corning, NY)
High-throughput Drug Combination Screening.
Prior to their inoculation into 384-well plates, malignant cells, HUVEC, and hMSC were removed from T flasks using TrypLE express (Thermo Fisher Scientific, cat. 12605036) and harvested by centrifugation for 5 min at 233 x g. […]
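Wherever IC50 is given: spheroids exposed to drugs for seven days before viability readout.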
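Wherever viability, T/C is given: spheroids exposed to drugs for seven days before viability readout.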

COC1CC2CCC(C)C(O)(O2)C(=O)C(=O)N2CCCCC2C(=O)OC(C(C)CC2CCC(OCCO)C(OC)C2)CC(=O)C(C)C=C(C)C(O)C(OC)C(=O)C(C)CC(C)C=CC=CC=C1C (stereo not given) + CC(C)NCC(C(=O)N1CCN(c2ncnc3c2C(C)CC3O)CC1)c1ccc(Cl)cc1
IC50 (second compound 0.3 µM): > 100 nM | IC50 (second compound 0.949 µM): > 100 nM | IC50 (second compound 3 µM): > 100 nM | IC50 (second compound 9.49 µM): > 100 nM | IC50 (second compound 30 µM): > 100 nM | viability, T/C (second compound 0.3 µM, first compound 0.000316 µM): 108% | viability, T/C (second compound 0.3 µM, first compound 0.001 µM): 117% | viability, T/C (second compound 0.3 µM, first compound 0.00316 µM): 99.9% | viability, T/C (second compound 0.3 µM, first compound 0.01 µM): 99.2% | viability, T/C (second compound 0.3 µM, first compound 0.0316 µM): 96.8% | viability, T/C (second compound 0.3 µM, first compound 0.1 µM): 91.7% | viability, T/C (second compound 0.949 µM, first compound 0.000316 µM): 115% | viability, T/C (second compound 0.949 µM, first compound 0.001 µM): 110% | viability, T/C (second compound 0.949 µM, first compound 0.00316 µM): 100% | viability, T/C (second compound 0.949 µM, first compound 0.01 µM): 104% | viability, T/C (second compound 0.949 µM, first compound 0.0316 µM): 88.1% | viability, T/C (second compound 0.949 µM, first compound 0.1 µM): 91.4% | viability, T/C (second compound 3 µM, first compound 0.000316 µM): 102% | viability, T/C (second compound 3 µM, first compound 0.001 µM): 112% | viability, T/C (second compound 3 µM, first compound 0.00316 µM): 97% | viability, T/C (second compound 3 µM, first compound 0.01 µM): 94.2% | viability, T/C (second compound 3 µM, first compound 0.0316 µM): 92.1% | viability, T/C (second compound 3 µM, first compound 0.1 µM): 95.3% | viability, T/C (second compound 9.49 µM, first compound 0.000316 µM): 90.7% | outcome (second compound 9.49 µM, first compound 0.001 µM): inactive | viability, T/C (second compound 9.49 µM, first compound 0.00316 µM): 98% | viability, T/C (second compound 9.49 µM, first compound 0.01 µM): 95% | viability, T/C (second compound 9.49 µM, first compound 0.0316 µM): 96.2% | viability, T/C (second compound 9.49 µM, first compound 0.1 µM): 85.1% | viability, T/C (second compound 30 µM, first compound 0.000316 µM): 82.7% | viability, T/C (second compound 30 µM, first compound 0.001 µM): 95.2% | viability, T/C (second compound 30 µM, first compound 0.00316 µM): 86.4% | viability, T/C (second compound 30 µM, first compound 0.01 µM): 77% | viability, T/C (second compound 30 µM, first compound 0.0316 µM): 76.4% | viability, T/C (second compound 30 µM, first compound 0.1 µM): 77.2%
